Holding throughout (assay type): cell-based
The target of test [1] is T1, CXCR3 (Homo sapiens, UniProt P49682).
T1 sequence (P49682 1-368): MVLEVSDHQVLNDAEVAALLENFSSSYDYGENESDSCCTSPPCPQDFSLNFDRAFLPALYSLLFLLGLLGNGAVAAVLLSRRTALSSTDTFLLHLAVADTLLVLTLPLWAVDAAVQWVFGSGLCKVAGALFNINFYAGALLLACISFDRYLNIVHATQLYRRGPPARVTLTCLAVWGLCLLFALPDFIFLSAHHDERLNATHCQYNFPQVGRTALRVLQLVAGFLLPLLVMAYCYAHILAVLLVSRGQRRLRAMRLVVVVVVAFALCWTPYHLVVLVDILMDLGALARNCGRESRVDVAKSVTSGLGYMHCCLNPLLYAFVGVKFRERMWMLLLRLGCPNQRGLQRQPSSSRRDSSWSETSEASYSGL
As to the kind of experiment: Chemotaxis assay ITAC (CXCL11), L1.2-CXCR3 cells. Further details: expressed in transfected cells. To be noted: 1 nM CXCL11 (I-TAC), 4 hours. On the procedure: (§1) Human CXCR3 cDNA was amplified by PCR from a human cells cDNA library (Clontech) and subcloned into pcDNA3.1 (Invitrogen). Murine pre-B L1.2 cells were transfected with hCXCR3-pcDNA3.1 and were grown at 37° C., 5% CO2 in RPMI 1640 medium (Invitrogen, USA) supplemented with 5% heat inactivated fetal calf serum (Cancerra, Australia), 2 mM glutamine (Invitrogen), 50 units ml−1 penicillin, 50 μml−1 streptomycin. Stable transfectant clonal populations were selected using 800 μg/ml geneticin.
L1.2-CXCR3 cells were grown for 24 hours at 0.5×10^6 cells/ml in chemotaxis medium containing 5 mM butyric acid (Sigma). Compounds were on one hand mixed with 1 nM of CXCL11 (I-TAC) in phenol-red free RPMI 1640 (invitrogen) supplemented with 5% fetal bovine serum in presence of 1% DMSO. The CXCL11/compounds mixture was then added to lower chambers of chemotaxis 96 well microplates (neuroprobe), and framed filters ([…] pore size) were put on top of the lower chambers. Compounds were on the other hand mixed with L1.2 CXCR3 cells and incubated in chemotaxis medium at 1.5×10^6 cells/ml in presence of 1% DMSO at 37° C., 5% CO2 for 30 minutes. Cells/compounds mixture was then added on top of the frame filters and migration was performed at 37° C., 5% CO2 for 4 hours. The number of migrated cells in the bottom chamber was determined using the CyQuant GR dye (Molecular Probe), according to the manufacturer.

Test [2] addresses T1, CXCR3. The test is described as follows: Chemotaxis assay IP10, L1.2 recombinant cells expressing hCXCR3. As to conditions: L1.2 hCXCR3 cells, IP10 around 0.3 nM, 4 hours. Here is the method: as §1
L1.2 recombinant cells expressing the receptor hCXCR3 were maintained in culture in RPMI 1640 (invitrogen), 5% Foetal Bovine Serum (invitrogen), 2 mM glutamine(invitrogen), 50 u/ml penicillin/streptomycin (invitrogen), at 37° C.-5% CO2—in an H2O saturated incubator. In order to stimulate the expression of the receptor, cells were incubated overnight with 5 mM butyric acid (Sigma)
This mix of cells/compounds was then incubated at 37° C.-5% CO2—in an H2O saturated incubator during 30 minutes. Cells were then dispensed as a drop on each corresponding wells of the chemotaxis system. Cell migration was then induced at 37° C.-5% CO2—in an H2O incubator during 4 hours. Filters were then removed and cells that had migrated were transferred in a black plate (Costar). The plates were stored overnight at −80° C. Cell migration ratio was calculated using the cyquant dye (Molecular Probes-C7026).

The target in test [3] is T1, CXCR3. The test is described as follows: CXCR3 Ca2+ mobilization (FLIPR), stable hCXCR3-CHO cell line, I-TAC stimulated. To be noted: hCXCR3-CHO cells, I-TAC 100 nM stimulated Ca2+ response; read-out: Ca-ITAC. Also on record: host or cells: CHO cells stably expressing hCXCR3. In outline:
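Ca2+ mobilization triggered by I-TAC (100 nM) measured by FLIPR in a stable hCXCR3-CHO line. Dye-loaded (60 min) cells preincubated with compounds 20 minutes at room temperature; antagonism given relative to the compound-free I-TAC signal set at 100%.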

For `O=C(Nc1ccc(CN(Cc2ccccn2)S(=O)(=O)c2ccc(Cl)cc2)cc1)C1(c2ccccc2)CC1` [Example 162, 1-Phenyl-cyclopropanecarboxylic acid (4-{[(4-chloro-benzenesulfonyl)-pyridin-2-ylmethyl-amino]-methyl}-phenyl)-amide], the values for the IC50 against CXCR3 [1], at CXCR3 [2] and at CXCR3 [3] were 170 nM, 0.07 µM and 170 nM, respectively.

For the compound `N#Cc1ccc(S(=O)(=O)N(Cc2ccc(NC(=O)C3(c4ccccc4)CC3)cc2)Cc2ccccn2)cc1` [Example 163], the IC50 stood at 120 nM against CXCR3 [1], 0.02 µM at CXCR3 [2] and 20 nM on CXCR3 [3].

With `N#Cc1ccc(S(=O)(=O)N(Cc2ccc(C(=O)NCC(O)c3ccccc3)cc2)Cc2ccccn2)cc1` (stereo not drawn) [Example 102], the IC50 against CXCR3 [1] is 20 nM; on CXCR3 [2], 0.01 µM; on CXCR3 [3], 20 nM.

For `O=S(=O)(c1ccc(Cl)cc1)N(Cc1ccccn1)Cc1ccc(-c2nnn[nH]2)cc1F` [Example 57, 4-chloro-N-[2-fluoro-4-(1H-tetrazol-5-yl)benzyl]-N-(pyridin-2 ylmethyl)benzene sulfonamide], the IC50 was found to be 1780 nM against CXCR3 [1], 0.44 µM on CXCR3 [2] and 5000 nM at CXCR3 [3].

With `O=S(=O)(c1ccc(Cl)cc1)N(Cc1ccc(-c2nnn[nH]2)cc1)Cc1c(F)cccc1F` [Example 62, 4-chloro-N-(2,6-difluorobenzyl)-N-[4-(2H-tetrazol-5-yl)benzyl]benzene sulfonamide], the IC50 on CXCR3 [1] came to 212 nM; on CXCR3 [2], 0.183 µM; at CXCR3 [3] it was 44 nM.

As to `N#Cc1ccc(S(=O)(=O)N(Cc2ccc(-c3nnn[nH]3)cc2)Cc2ccccc2F)cc1` [Example 83, 4-cyano-N-(2-fluorobenzyl)-N-[4-(2H-tetrazol-5-yl)benzyl]benzenesulfonamide], the IC50 against CXCR3 [1] amounted to 1040 nM; on CXCR3 [2], 0.236 µM; at CXCR3 [3] it was 10 nM.

In the case of `O=C(O)c1ccc(CN(Cc2ccccc2F)S(=O)(=O)c2ccc(Cl)cc2)cc1F` [Example 65, 4-{[(4-Chloro-benzenesulfonyl)-(2-fluoro-benzyl)-amino]-methyl}-2-fluorobenzoic acid], the IC50 amounted to 2300 nM against CXCR3 [1], 0.513 µM on CXCR3 [2] and 1010 nM on CXCR3 [3].

On to `CCOc1ccc(S(=O)(=O)N(Cc2ccc(-c3nnn[nH]3)c(F)c2)Cc2ccccn2)cc1` [Example 80], for which the IC50 against CXCR3 [1] came to 909 nM; at CXCR3 [2], 0.158 µM; on CXCR3 [3], 55 nM.

In the case of `CCOc1ccc(S(=O)(=O)N(Cc2ccc(C(=O)NCC(O)c3ccccc3)cc2)Cc2ccccn2)cc1` (stereo not drawn) [Example 84], the IC50 worked out at 20 nM against CXCR3 [1], 0.01 µM at CXCR3 [2] and 20 nM at CXCR3 [3].

Turning to `CCOc1ccc(S(=O)(=O)N(Cc2ccc(C(=O)NC3(c4ccccc4)CC3)cc2)Cc2ccccn2)cc1` [Example 88], the IC50 on CXCR3 [1] came to 30 nM; at CXCR3 [2], 0.01 µM; on CXCR3 [3], 10 nM.

As for `O=S(=O)(c1ccc(Cl)cc1F)N(Cc1ccc(-c2nnn[nH]2)cc1)Cc1ccccn1` [Example 77], the IC50 at CXCR3 [1] is 409 nM; on CXCR3 [2] it was 0.409 µM; on CXCR3 [3], 500 nM.

Take `N#Cc1ccc(S(=O)(=O)N(Cc2ccc(-c3nnn[nH]3)c(F)c2)Cc2ccccc2F)cc1` [Example 81, 4-cyano-N-(2-fluorobenzyl)-N-[3-fluoro-4-(2H-tetrazol-5-yl)benzyl]benzene sulfonamide]: the results for the IC50 against CXCR3 [1], on CXCR3 [2] and at CXCR3 [3] were 565 nM, 0.193 µM and 79 nM, respectively.

Take `O=C(O)c1ccc(CN(Cc2ccccn2)S(=O)(=O)c2ccc(Cl)cc2)cc1F` [Example 64, 4-{[(4-Chloro-benzenesulfonyl)-pyridin-2-ylmethyl-amino]-methyl}-2-fluoro-benzoic acid]: the figures for the IC50 against CXCR3 [1], on CXCR3 [2] and on CXCR3 [3] were 3150 nM, 1.13 µM and 3040 nM, respectively.

Turning to `O=C(NCC1CC1)c1ccc(CN(Cc2ccccc2)S(=O)(=O)c2ccc(Cl)nc2)cc1` [Example 37, 4-{[benzyl({[2-chloropyridine)l]sulfonyl)amino]methyl}-N(cyclopropylmethyl)benzamide], the IC50 on CXCR3 [2] was 0.328 µM; on CXCR3 [3] it was 3350 nM.

In the case of `O=C(NCC1CC1)c1ccc(CN(Cc2ccccc2F)S(=O)(=O)c2ccc(Cl)cc2)cc1` [Example 29, 4-{[(4-Chloro-benzenesulfonyl)-(2-fluoro-benzyl)-amino]-methyl}-N-cyclopropyl methyl benzamide], the IC50 at CXCR3 [2] was 0.51 µM; at CXCR3 [3], 1000 nM.

Consider `CC(C)(C)OC(=O)N1C[C@@H]2[C@H](C1)[C@H]2NC(=O)c1ccc(CN(Cc2ccccn2)S(=O)(=O)c2ccc(C#N)cc2)cc1` [Example 96], for which the results for the IC50 on CXCR3 [2] and on CXCR3 [3] were 0.01 µM and 10 nM, respectively.

In the case of `CC(C)(C)c1nc(CN(Cc2ccc(-c3nnn[nH]3)cc2)S(=O)(=O)c2ccc(Cl)cc2)no1` [Example 69, 4-chloro-N-(5-tert-butyl-1,2,4-oxadiazol-3-ylmethyl)-N-[4-(2H-tetrazol-5yl)benzyl]benzene sulfonamide], the results for the IC50 against CXCR3 [1], on CXCR3 [2] and at CXCR3 [3] were 560 nM, 0.254 µM and 56 nM, respectively.

As to `CS(=O)(=O)CCCS(=O)(=O)NC(=O)c1ccc(CN(Cc2ccccn2)S(=O)(=O)c2ccc(Cl)cc2)cc1` [Example 53, N-(1-methylsulfonyl-3-propylsulfonyl)-4-{[[(4-chlorophenyl)sulfonyl](pyridin-2-yl-methyl)amino]methyl}benzamide], the figures for the IC50 on CXCR3 [2] and on CXCR3 [3] were 1.32 µM and 1700 nM, respectively.

With `O=C(NS(=O)(=O)Cc1cccc([N+](=O)[O-])c1)c1ccc(CN(Cc2ccccn2)S(=O)(=O)c2ccc(Cl)cc2)cc1` [Example 50, N-(3-nitrophenylmethanesulfonyl)-4-{[[(4-chlorophenyl)sulfonyl](pyridin-2-yl-methyl)amino]methyl}benzamide], the IC50 at CXCR3 [2] came to 0.207 µM; on CXCR3 [3], 175 nM.

Turning to `CCOc1ccc(S(=O)(=O)N(Cc2ccc(C(=O)N[C@H]3[C@@H]4CN(C(=O)OC(C)(C)C)C[C@@H]43)cc2)Cc2ccccn2)cc1` [Example 89, rac-6-(4-{[(4-Ethoxy-benzenesulfonyl)-pyridin-2-ylmethyl-amino]-methyl}-benzoylamino)-3-aza-bicyclo[3.1.0]hexane-3-carboxylic acid tert-butyl ester], the IC50 at CXCR3 [2] amounted to 0.01 µM; at CXCR3 [3], 50 nM.

Regarding `O=S(=O)(c1ccc(Cl)cc1)N(Cc1ccc(-c2nnn[nH]2)cc1)Cc1ccc(F)cc1F` [Example 60, 4-chloro-N-(2,4-difluorobenzyl)-N-[4-(2H-tetrazol-5-yl)benzyl]benzenesulfonamide], the IC50 on CXCR3 [2] was found to be 0.681 µM; at CXCR3 [3], 1450 nM.

As for `N#Cc1ccc(S(=O)(=O)N(Cc2ccc(-c3nnn[nH]3)cc2)Cc2ccccn2)cc1` [Example 47, 4-cyano-N-(pyridin-2-ylmethyl)-N-[4-(2H-tetrazol-5-yl)benzyl]benzenesulfonamide], the figures for the IC50 at CXCR3 [2] and on CXCR3 [3] were 0.233 µM and 1160 nM, respectively.

On to `N#Cc1ccc(S(=O)(=O)N(Cc2ccc(NC(=O)Cc3cccc(Cl)c3)cc2)Cc2ccccn2)cc1` [Example 161], for which the IC50 on CXCR3 [2] stood at 0.06 µM; on CXCR3 [3], 20 nM.

For the origin of these results see patent US20110028509A1, “Sulfonamides” (MERCK SERONO SA, priority 2008, published 2011).
